Test results from patent US4581356A, “Triazine derivatives, and pharmaceutical compositions comprising the same” (Fujisawa Pharmaceutical Co., Ltd., priority 1983, dated 1986).

Key:
[1] = tested on: ulcers (stomach); experiment: Antiulcer activity: inhibition of ulcer area in rats immobilized in water bath; format: in vivo, Sprague-Dawley rats; conditions: orally, 7 hours
Method: Sprague-Dawley rats weighing about 200 g were used. Each animal was immobilized in a small cage and put in a water bath allowing to respire. The temperature of the water bath kept at 22° C. The test compound was administered orally just before the immobilization. Seven hours later, the animals were sacrificed and their stomachs were removed. The stomach was then fixed with 2% formalin. The area of ulcers was measured for each animal. The mean area (mm^2) in the test animals was compared with that in the control animals and inhibition effect (%) were calculated.

[2] = tested on: platelet aggregation (ADP as inducer); experiment: Inhibition of ADP-induced platelet aggregation in platelet rich plasma; format: cell-based; conditions: Oryctolagus cuniculus, rabbit PRP, 37° C., ADP 2.5 μM, read-out: ID50 ADP
Method: (§1) Platelet rich plasma (PRP) which contains 6.5-7.5×10^8 platelet/ml was prepared from rabbit blood. To the 200 μl of PRP, 5 μl of calcium chloride (1 mM) and 50 μl of pH 7.4 Tris-acetate solution (5 mM) containing 120 mM NaCl and test compound were added successively, and then stirred for 2 min. at 37° C. To the solution, 5 μl of adenosine diphosphate (ADP) (2.5 μM) or collagen (2.5 μg/ml) was added as an aggregation inducer. Aggregation was measured by using an aggregometer (NKK HEMA TRACER 1).

[3] = tested on: platelet aggregation (collagen as inducer); experiment: Inhibition of collagen-induced platelet aggregation in platelet rich plasma; format: cell-based; conditions: Oryctolagus cuniculus, rabbit PRP, 37° C., collagen 2.5 μg/ml, read-out: ID50 Collagen
Method: as §1

[4] = tested on: blood pressure; experiment: Antihypertensive activity in uninephrectomized DOCA/saline hypertensive rats (mean arterial pressure); format: in vivo, male Wister rats; conditions: orally, DOCA rats
Method: Five-week old male Wister rats were uninephrectomized under anesthesia. Deoxycorticosterone acetate (DOCA) (30 mg/kg), suspended in peanut oil, was injected subcutaneously twice a week and 1% saline was substituted for the drinking water. Animals with mean blood pressure 150-200 mmHg were used for experiment between 5 and 7 weeks after surgery.
The test compounds were administered intraperitonealy or orally. Blood pressure was measured at the femoral artery by means of a pressure transducer and recorded as electrically integrated values of mean arterial pressure.

Compound | IC50 [2] [nM] | IC50 [3] [nM] | Effect (inhibition of ulcer area) ([1]; 10 mg/kg (dose c)) [%] | Effect (inhibition of ulcer area) ([1]; 32 mg/kg (dose d)) [%] | Effect Max (mean ratio of maximum decrease of blood pressure) ([4]; 0.1 mg/kg (dose a)) [%] | Effect Max (mean ratio of maximum decrease of blood pressure) ([4]; 1 mg/kg (dose b)) [%]
CN1C(=O)Cc2cc(C3=NNC(=O)NC3)ccc21 [Example 9 - (4), 6-(1-Methyl-2-indolinon-5-yl)-4,5-dihydro-1,2,4-triazin-3(2H)-one] | 4600 | 2700 |  |  |  | 
CC(=O)N1CCCc2cc(C3=NNC(=O)NC3C)ccc21 (stereo not drawn) [Example 10 - (5), 6-(1-acetyl-1,2,3,4-tetrahydroquinolin-6-yl)-5-methyl-4,5-dihydro-1,2,4-triazin-3(2H)-one] | 1400 | 540 |  |  |  | 40
CC(=O)N1CCCc2ccc(C3=NNC(=O)NC3C)cc21 (stereo not drawn) [Example 11 - (3), 6-(1-Acetyl-1,2,3,4-tetrahydroquinolin-7-yl)-5-methyl-4,5-dihydro-1,2,4-triazin-3(2H)-one] | 3700 | 1900 |  |  |  | 
CC1NC(=O)NN=C1c1ccc2c(c1)NCCC2 (stereo not drawn) [Example 11 - (4), 6-(1,2,3,4-Tetrahydroquinolin-7-yl)-5-methyl-4,5-dihydro-1,2,4-triazin-3(2H)-one] | 56000 | 22000 |  |  |  | 
CC1NC(=O)NN=C1c1ccc2c(c1)CCCN2C (stereo not drawn) [Example 15, 6-(1-methyl-1,2,3,4-tetrahydroquinolin-6-yl)-5-methyl-4,5-dihydro-1,2,4-triazin-3(2H)-one] | 5800 | 2000 |  |  |  | 68

These reach a lower IC50 [2]. Values come first.

IC50 [2] [nM] | IC50 [3] [nM] | Compound | Effect (inhibition of ulcer area) ([1]; 10 mg/kg (dose c)) [%] | Effect (inhibition of ulcer area) ([1]; 32 mg/kg (dose d)) [%] | Effect Max (mean ratio of maximum decrease of blood pressure) ([4]; 0.1 mg/kg (dose a)) [%] | Effect Max (mean ratio of maximum decrease of blood pressure) ([4]; 1 mg/kg (dose b)) [%]
1300 | 470 | CC1NC(=O)NN=C1c1ccc2c(c1)CCCN2 (stereo not drawn) [Example 10 - (6), 6-(1,2,3,4-tetrahydroquinolin-6-yl)-5-methyl-4,5-dihydro-1,2,4-triazin-3(2H)-one] |  |  | 33 | 57
360 | 240 | CN1C(=O)CCc2cc(C3=NNC(=O)NC3)ccc21 [Example 8 - (4), 6-(1-methyl-2-oxo-1,2,3,4-tetrahydroquinolin-6-yl)-4,5-dihydro-1,2,4-triazin-3(2H)-one] | 68.0 | 80.0 | 15 | 49
250 | 81 | CC1NC(=O)NN=C1c1ccc2c(c1)CCCN2C(=O)C1CCC1 (stereo not drawn) [Example 14, 6-(1-Cyclobutanecarbonyl-1,2,3,4-tetrahydroquinolin-6-yl)-5-methyl-4,5-dihydro-1,2,4-triazin-3(2H)-one] |  |  |  | 
160 | 34 | CC1NC(=O)NN=C1c1ccc2c(c1)CCCN2C(=O)C1CC1 (stereo not drawn) [Example 13, 6-(1-cyclopropanecarbonyl-1,2,3,4-tetrahydroquinolin-6-yl)-5-methyl-4,5-dihydro-1,2,4-triazin-3(2H)-one] |  |  |  | 
67 | 48 | CC1NC(=O)NN=C1c1ccc2c(ccc(=O)n2C)c1 (stereo not drawn) [Example 12 - (3), 6-(1-Methyl-2-oxo-1,2-dihydroquinolin-6-yl)-5-methyl-4,5-dihydro-1,2,4-triazin-3(2H)-one] |  |  | 40 | 58
